The term pIC50 denotes the IC50 on a negative log10 scale, so that one unit is a factor of ten.

Results on 7 molecules are retold here after US20080199897A1, “CLASS II HISTONE DEACETYLASE WHOLE CELL ENZYME ASSAY” (MethylGene Inc., priority 2007, published 2008).

The structures appear in SMILES notation. pIC50: −log10 of the molar value. Structures can show the parent of a compound that is named as a salt. Where two headings read alike, the source gives them in different places.

Series [1] relates to Class I and Class II HDACs. Nature of the series: enzymatic reactivity of substrates for Class I and Class II HDACs. It is filed as biochemical. To be noted: FIG. 12 legend. As for the experimental part:
(§1) A 30 mM stock of Boc-Lys(TFA)-AMC substrate was prepared in DMSO. 2 μl test compound in DMSO was diluted in 50 μl buffer (25 mM HEPES, pH 8.0, 137 mM NaCl, 2.7 mM KCl, 1 mM MgCl2, 0.1% BSA) and pre-incubated with Class II HDAC enzyme (30 μl of a final enzyme concentration of 0.1-0.2 nM) for 10 minutes at room temperature. Reaction was started by adding 18 μl Boc-Lys(TFA)-AMC substrate and incubating at 37° C. for 20-30 minutes. The reaction was stopped by adding 50 μl trypsin (1 mg/ml) and a known HDAC inhibitor. The plate was then incubated in the dark for 20 minutes at room temperature and read with Ex=360 nm, Em=470 nm, cutoff filter at 435 nm.
as §1, with “of Boc-Lys(thioAc)-AMC” for “of Boc-Lys(TFA)-AMC”, “in 15” for “in 50”, “enzyme (15” for “enzyme (30”, “of 50-500” for “of 0.1-0.2”, “μl Boc-Lys(thioAc)-AMC” for “μl Boc-Lys(TFA)-AMC”, “for 30-60” for “for 20-30”

Series [2] has as its system CD-1 mouse whole blood cells. Nature of the series: deacetylase activity in serum from mouse whole blood contacted with substrate. The note with it: 300 uM substrate. Format: cell-based. As for the experimental part: CD-1 Mouse blood was collected in heparin tubes and cells were counted by Coulter counter (Beckman Coulter, Ville St. Laurent, Quebec). The amount of whole blood containing 1.6×10E6 white blood cells was aliquoted and the volume was brought up to 200 ul with RPMI (+10% FBS). Boc-Ac-Lys-AMC was added to a final concentration of 300 uM. After various amounts of time, the mix was spun (400×g for 5 min), and 50 ul of the supernatant (serum) was transferred to a 96-well plate. The amount of deacetylated product Boc-Lys-AMC present in the supernatant was detected by adding an equal volume of the developer mix and reading after 15 minutes incubation. […] Thus total HDAC activity in primary cells could be easily monitored in bodily fluid where animals were contacted with HDAC substrates ex vivo.

In the next series the test system is 293T cells. Nature of the series: intracellular and excellular deacetylase activity of 293T cells. Format: cell-based, human. The note with it: 300 uM substrate. As for the experimental part: Freshly trypsinized cells (293T) were dispensed into 96-well black Costar E1A/RIA plates (Corning Inc., Corning, N.Y.). Small molecule substrate Boc-Lys(Ac)-AMC (Bachem Biosciences Inc., King of Prussia, Philadelphia) were added to cell suspension with the final concentration of 300 uM. Cells were placed in 37° C. incubator with 5% CO2 for indicated time period. Supernatant was collected if necessary and subject to spinning. Reaction was stopped by adding a freshly prepared Fluor-de-Lys™ developer (Biomol, Plymouth Meeting, Philadelphia) with 1 uM TSA (Biomol, Plymouth Meeting, Philadelphia) in assay buffer (25 mM Tris, HCl pH8.0, 137 mM NaCl, 2.7 mM KCl, 1 mM MgCl2) plus 1% NP-40 into supernatant or cell pellets. Fluorescence was developed for 15 minutes at 37° C. and read in a fluorometer (SPECTRAMAX GeminiXS, Molecular Devices, Sunnylvale, Calif.) with an excitation wavelength at 360 nm, emission at 470 nm, and a cutoff of 435 nm. […] In contrast, when there is no substrates added, neither supernatant from cultured cells nor cell pellets have HDAC activity.

The test system of series [3] is total HDAC activity in human white blood cells. Nature of the series: ex vivo inhibition of whole cell HDAC activity in human white blood cells. Format: cell-based. The note with it: 16 hours incubation; Boc-Lys(ac)-AMC substrate. As for the experimental part: Whole blood (human or mouse) was centrifuged at 2500 rpm for 10 minutes at ambient temperature in a Sorvall RT-7 centrifuge (Mandel Scientific Co., Guelph, Ontario). Plasma was removed and buffy coat was collected. Five volumes of Erythrocyte Lysis Buffer (EL) (Qiagen Canada Inc., Mississauga, Ontario) were added to buffy coat. Buffy coat was incubated on ice for 20 minutes before it was centrifuged at 400 g for 10 minutes at 4° C. Supernatant was removed and buffy coat was washed twice with EL buffer and re-centrifugation. Buffy coat was resuspended in RPMI media and cells (white blood cells) were counted with trypan blue exclusion. White blood cells were plated into 96-well dish in RPMI plus 10% fetal bovine serum. HDAC small molecule substrate Boc-Lys(ac)-AMC was added to cell suspensions and incubated with cells for 90 minutes at 37° C. before reaction was stopped, and fluorescence was developed and read.
Human white blood cells (buffy coat) isolated from human donors were plated into 96-well dish in RPMI plus 10% fetal bovine serum. HDAC inhibitors with a range of dilutions were incubated with cells for 16 hours at 37 C with 5% CO2. HDAC small molecule substrate Boc-Lys(ac)-AMC was added into cell suspensions and incubated with cells for 90 minutes before reaction was stopped, and fluorescence was developed and read.

The subject of another series is A549. Nature of the series: whole cell deacetylase assay with Boc-Lys(Ac)-AMC in A549 cells.
The next series has as its system 293T. Nature of the series: whole cell deacetylase assay with Boc-Lys(Ac)-AMC in 293T cells. The note with it: read-out: whole cell deacetylase IC50, 293T.
In the next series the test system is Du145. Nature of the series: whole cell deacetylase assay with Boc-Lys(Ac)-AMC in Du145 cells.
For a further series, the system named is HCT116. Nature of the series: whole cell deacetylase assay with Boc-Lys(Ac)-AMC in HCT116 cells.
The next series deals with Jurkat T. Nature of the series: whole cell deacetylase assay with Boc-Lys(Ac)-AMC in Jurkat T cells. The note with it: read-out: whole cell deacetylase IC50, Jurkat T.
Another series relates to Panc-1. Nature of the series: whole cell deacetylase assay with Boc-Lys(Ac)-AMC in Panc-1 cells. The note with it: read-out: whole cell deacetylase IC50, Panc-1, pre-incubated with inhibitor 16 hours, Boc-Lys(Ac)-AMC substrate, mean of at least 2 experiments.

Description for A549: (§2) Freshly trypsinized cells were dispensed into 96-well black Costar E1A/RIA plates (Corning Inc., Corning, N.Y.). Small molecule substrate Boc-Lys(Ac)-AMC (Bachem Biosciences Inc., King of Prussia, Philadelphia) was added to cell suspension with the final concentration of 300 uM. Cells were placed in 37° C. incubator with 5% CO2 for 90 minutes. […] With the presence of 1% NP-40, both excellular and intracellular HDAC activity was measured in cultured cells altogether. Fluorescence was developed for 15 minutes at 37 C and read in a fluorometer (SPECTRAMAX GeminiXS, Molecular Devices, Sunnylvale, Calif.) with an excitation wavelength at 360 nm, emission at 470 nm, and a cutoff of 435 nm.
Description for Du145: as §2
Description for HCT116: as §2
Description for Jurkat T: as §2
Description for Panc-1: as §2

With `CC(=O)NCCCC[C@H](NC(=O)OC(C)(C)C)C(=O)Nc1ccc2c(C)cc(=O)oc2c1` [Boc-Lys(Ac)-AMC], the “HDAC class specificity of substrate” value in [1] was “specific for Class I HDACs, especially HDAC1, HDAC2 and HDAC6”. The figures for the cell permeability result (in series [2]; with 293T cells) were “permeable to go inside cells” and “could permeablize into cells”, respectively.

`Cc1cc(=O)oc2cc(NC(=O)[C@H](CCCCNC(=O)C(F)(F)F)NC(=O)OC(C)(C)C)ccc12` [Boc-Lys(Tfa)-AMC]: the “HDAC class specificity of substrate” value in series [1] is given as “specific for Class II HDACs”.

Turning to `CC(=S)NCCCCC(NC(=O)OC(C)(C)C)C(=O)Nc1ccc2c(C)cc(=O)oc2c1` (stereo not shown) [Boc-Lys(thioAc)-AMC], the “HDAC class specificity of substrate” value in series [1] was “specific for Class II HDACs”.

For the molecule `Cc1cc(=O)oc2cc(NC(=O)[C@H](CCCCN)NC(=O)OC(C)(C)C)ccc12` [Boc-Lys-AMC], in [2], the cell permeability result is reported as “permeable to come out from cells”.

As to `O=C(/C=C/c1ccc(CN(CCO)CCc2c[nH]c3ccccc23)cc1)NO` [LAQ-824], the “inhibition of whole cell HDAC activity in human white blood cells” value in series [3] is listed as “dose-dependent inhibition”. Besides, the pIC50 is 7.70 in the series on A549 (Homo sapiens, A549, read-out: whole cell deacetylase IC50, A549); 7.40 with 293T (Homo sapiens, HEK-293T); 7.30 in the series on Du145 (Homo sapiens, DU-145, read-out: whole cell deacetylase IC50, Du145); 7.22 with HCT116 (Homo sapiens, HCT-116, read-out: whole cell deacetylase IC50, HCT116); 7.40 in the series with Jurkat T (Homo sapiens, Jurkat).

`Nc1ccccc1NC(=O)c1ccc(CNC(=O)OCc2cccnc2)cc1` [MS-275]: the negative logarithm of the IC50 (pIC50) with A549 (read-out: whole cell deacetylase IC50, A549, A549 cells, pre-incubated with inhibitor 16 hours, Boc-Lys(Ac)-AMC substrate, mean of at least 2 experiments) was 6.40; with 293T (293T cells, pre-incubated with inhibitor 16 hours, Boc-Lys(Ac)-AMC substrate, mean of at least 2 experiments), 5.70; in the series with Du145 (read-out: whole cell deacetylase IC50, Du145, Du145 cells, pre-incubated with inhibitor 16 hours, Boc-Lys(Ac)-AMC substrate, mean of at least 2 experiments), 6.52; with HCT116 (read-out: whole cell deacetylase IC50, HCT116, HCT116 cells, pre-incubated with inhibitor 16 hours, Boc-Lys(Ac)-AMC substrate, mean of at least 2 experiments), 5.52; in the series with Panc-1 it was 6.30; in the series with Jurkat T (Jurkat T cells, pre-incubated with inhibitor 16 hours, Boc-Lys(Ac)-AMC substrate, mean of at least 2 experiments), 6.52.

As for `CC(=O)O[C@H]1C(=O)[C@@]2(C)[C@H]([C@H](OC(=O)c3ccccc3)[C@]3(O)C[C@H](OC(=O)[C@H](O)[C@@H](NC(=O)c4ccccc4)c4ccccc4)C(C)=C1C3(C)C)[C@]1(OC(C)=O)CO[C@@H]1C[C@@H]2O` [Taxol], in the series with 293T (Homo sapiens, HEK-293T), the pIC50 is below 4.30.
